The results in this text go back to the NIST ThermoML archive (doi:10.1021/acs.jced.9b00310).

± gives the expanded uncertainty stated by the source.

Data set [1] in a line: Molar enthalpy of transition or fusion. Conditions: Crystal; DSC.
The conditions of data set [2]: Crystal; DSC.

As to `CC(=O)c1c(C)c([N+](=O)[O-])c(C(C)(C)C)c([N+](=O)[O-])c1C` [3',5'-dinitro-2',6'-dimethyl-4'-tert-butylacetophenone], in data set [1], the “Molar enthalpy of transition or fusion” value was found to be 5.69 ± 0.167 kcal/mol. In data set [2], the Triple point temperature was 409.5 ± 1 K.
